In brackets after ≈: the same amount, converted by molar mass.

Data set [1] in a line: Evaluated for pharmacokinetic parameter half-life in rabbit at the dose 20 mg/kg. On the set-up: dose 20 mg/kg. The class given is ADME, organism-based, Oryctolagus cuniculus. The settings on record: in vivo.
Data set [2] can be described thus: Evaluated for pharmacokinetic parameter urine recovery in rat at the dose 50 mg/kg ( 0-24 hr ). The class given is ADME, organism-based. The note with it: read-out: UR. More on the design: dose 50 mg/kg.
Data set [3] is described as follows: Evaluated for pharmacokinetic parameter Cmax in rat at the dose 50 mg/kg. The class given is ADME, organism-based. More on the design: dose 50 mg/kg. The settings on record: in vivo.
Data set [4] can be described thus: Evaluated for pharmacokinetic parameter Cmax in mouse at the dose 20 mg/kg. The class given is ADME, organism-based. On the set-up: dose 20 mg/kg. The settings on record: in vivo.
A short description of data set [5]: Evaluated for pharmacokinetic parameter area under curve in mouse at the dose 20 mg/kg (0-4 hr). The class given is ADME, organism-based. More on the design: time < 4 hr, dose 20 mg/kg. The note with it: in vivo.
Data set [6] in a line: Evaluated for pharmacokinetic parameter area under curve in rabbit at the dose 20 mg/kg ( 0-4 hr ). The class given is ADME, organism-based, Oryctolagus cuniculus. More on the design: time < 4 hr, dose 20 mg/kg. The note with it: in vivo.
A short description of data set [7]: Evaluated for pharmacokinetic parameter tmax in rat at the dose 50 mg/kg. The class given is ADME, organism-based. More on the design: dose 50 mg/kg. The settings on record: in vivo.
The nature of data set [8]: Evaluated for pharmacokinetic parameter urine recovery in rabbit at the dose 20 mg/kg ( 0-24 hr ). More on the design: dose 20 mg/kg. The note with it: read-out: UR. The class given is ADME, organism-based, Oryctolagus cuniculus.
The nature of data set [9]: Evaluated for pharmacokinetic parameter area under curve in rat at the dose 50 mg/kg ( 0-8 hr ). The class given is ADME, organism-based. More on the design: time < 8 hr, dose 50 mg/kg. The settings on record: in vivo.
A short description of data set [10]: Evaluated for pharmacokinetic parameter Cmax in rabbit at the dose 20 mg/kg. More on the design: dose 20 mg/kg. The class given is ADME, organism-based, Oryctolagus cuniculus. The note with it: in vivo.
Data set [11] can be described thus: Evaluated for pharmacokinetic parameter urine recovery in mouse at the dose 20 mg/kg ( 0-24 hr ). The class given is ADME, organism-based. More on the design: dose 20 mg/kg. The settings on record: read-out: UR.
Data set [12] can be described thus: Evaluated for pharmacokinetic parameter tmax in rabbit at the dose 20 mg/kg. The class given is ADME, organism-based, Oryctolagus cuniculus. The settings on record: in vivo. On the set-up: dose 20 mg/kg.
Data set [13] in a line: Evaluated for pharmacokinetic parameter half-life in rat at the dose 50 mg/kg. The class given is ADME, organism-based. On the set-up: dose 50 mg/kg. The settings on record: in vivo.
Data set [14] can be described thus: Evaluated for pharmacokinetic parameter tmax in mouse at the dose 20 mg/kg. The class given is ADME, organism-based. More on the design: dose 20 mg/kg. The settings on record: in vivo.
Data set [15] can be described thus: Evaluated for pharmacokinetic parameter half-life in mouse at the dose 20 mg/kg. The class given is ADME, organism-based. On the set-up: dose 20 mg/kg. The note with it: in vivo.
Data set [16] deals with Proteus mirabilis. Description: Antibacterial activity against Proteus mirabilis IFO3849 was determined. The class given is functional.
Data set [17] deals with Providencia rettgeri. Description: Antibacterial activity against Providencia rettgeri IFO3850 was determined. The class given is functional.
Data set [18] relates to Escherichia coli. Description: Antibacterial activity against Escherichia coli ATCC 25922 was determined. The class given is functional.
Data set [19] concerns Morganella morganii. Description: Antibacterial activity against Morganella morganii IID 602 was determined. The class given is functional.
For data set [20], the system named is Staphylococcus epidermidis. Description: Antibacterial activity against Staphylococcus epidermidis IID 866 was determined. The class given is functional.
The subject of data set [21] is Enterococcus hirae. In words: Antibacterial activity against Enterococcus hirae ATCC 8043 was determined. The class given is functional.
In data set [22] the test system is Staphylococcus aureus. In words: Antibacterial activity against Staphylococcus aureus 209P-JC was determined. The class given is functional.
Data set [23] deals with Serratia marcescens. Description: Antibacterial activity against Serratia marcescens IID 618 was determined. The class given is functional.
Data set [24] has as its system Escherichia coli. In words: Antibacterial activity against Escherichia coli NIHJ JC-2 was determined. The class given is functional.
Data set [25] relates to Klebsiella pneumoniae. Description: Antibacterial activity against Klebsiella pneumoniae IFO 3317 was determined. The class given is functional.
The subject of data set [26] is Staphylococcus aureus. In words: Antibacterial activity against Staphylococcus aureus Smith was determined. The class given is functional.
Data set [27] has as its system Pseudomonas aeruginosa. Description: Antibacterial activity against Pseudomonas aeruginosa NCTC 10490 was determined. The class given is functional.
Data set [28] has as its system Moraxella catarrhalis. Description: Antibacterial activity against M(B). catarrhalis ATCC 25238 was determined. The class given is functional.
For data set [29], the system named is Staphylococcus aureus. In words: Antibacterial activity against Staphylococcus aureus ATCC 25923 was determined. The class given is functional.
The test system of data set [30] is Enterobacter cloacae. Description: Antibacterial activity against Enterobacter cloacae 963 was determined. The class given is functional.
Data set [31] concerns Micrococcus luteus. Description: Antibacterial activity against Micrococcus luteus ATCC 9341 was determined. The class given is functional.
Data set [32] has as its system Proteus vulgaris. In words: Antibacterial activity against Proteus vulgaris HX-19 was determined. The class given is functional.
The subject of data set [33] is Klebsiella aerogenes. Description: Antibacterial activity against Enterobacter aerogenes IFO 13048 was determined. The class given is functional.

Consider `CC(C)(C)C(=O)OCOC(=O)C1=C(/C=C\c2csnn2)CSC2C(NC(=O)/C(=N\O)c3csc(N)n3)C(=O)N12` (stereo not drawn), for which the half-life in data set [1] was 2.3 h; in data set [13] it was 1.8 h; in data set [15] it was 2.7 h. Also, the values for the dose excreted in [2], in data set [8] and in data set [11] were 9.5%, 17.2% and 42.8%, respectively. The Cmax in data set [3] is 15200 ng/mL; in data set [4], 20500 ng/mL; in [10] it was 2400 ng/mL. Moreover, the AUC at 4 h in [5] is 62000 ng·h/mL; in data set [6], 10500 ng·h/mL. The time to peak (Tmax) was determined as 1 h in data set [7], 1 h in data set [12] and 0.5 h in data set [14]. Also, the area under the curve (AUC) at 8 h in data set [9] was 37900 ng·h/mL.
As for `Cc1nnsc1/C=C\C1=C(C(=O)O)N2C(=O)C(NC(=O)/C(=N\O)c3csc(N)n3)C2SC1` (stereo not drawn), the MIC in [16] was 0.1 µg/mL (≈ 0.203 µM); in [17] it was at most 0.006 µg/mL; in data set [18], 0.2 µg/mL (≈ 0.405 µM); in data set [19] it was 0.05 µg/mL (≈ 0.101 µM); in data set [20], 0.2 µg/mL (≈ 0.405 µM); in data set [21] it was 25 µg/mL (≈ 50.7 µM). In addition, the minimal inhibitory concentration (MIC) is 0.2 µg/mL (≈ 0.405 µM) in data set [22], 0.78 µg/mL (≈ 1.58 µM) in [23], 0.1 µg/mL (≈ 0.203 µM) in data set [24] and 0.05 µg/mL (≈ 0.101 µM) in data set [25].
For the compound `Cc1snnc1/C=C\C1=C(C(=O)O)N2C(=O)C(NC(=O)/C(=N\O)c3csc(N)n3)C2SC1` (stereo not drawn), the MIC in data set [26] was 0.2 µg/mL (≈ 0.405 µM); in [16] it was 0.39 µg/mL (≈ 0.79 µM); in data set [17], at most 0.006 µg/mL; in [27] it was above 100 µg/mL; in data set [28], 0.05 µg/mL (≈ 0.101 µM); in [29] it was 0.39 µg/mL (≈ 0.79 µM). The MIC in data set [18] is 0.2 µg/mL (≈ 0.405 µM); in data set [19], 0.05 µg/mL (≈ 0.101 µM); in [20], 0.39 µg/mL (≈ 0.79 µM); in [21] it was 25 µg/mL (≈ 50.7 µM); in data set [30], 0.39 µg/mL (≈ 0.79 µM); in data set [22], 0.2 µg/mL (≈ 0.405 µM). For the same compound, the MIC in [23] came out at 0.78 µg/mL (≈ 1.58 µM); in data set [31], 0.025 µg/mL (≈ 0.0507 µM); in data set [32] it was 0.05 µg/mL (≈ 0.101 µM); in data set [24], 0.39 µg/mL (≈ 0.79 µM); in data set [25], 0.025 µg/mL (≈ 0.0507 µM); in data set [33] it was 0.78 µg/mL (≈ 1.58 µM).

By half-life is commonly meant how long it takes for the measured level to halve. Higher therefore signals slow decline. For orientation: Cmax means the maximum level reached in the sampled fluid or tissue. For orientation: AUC means the area under the concentration-time curve, a measure of exposure. Low readings indicate low exposure, high ones high exposure. Broadly, the Tmax is the time at which the peak concentration occurs. By MIC is commonly meant the lowest concentration that inhibits growth of the organism. High values mean a need for much substance, low ones inhibition by little substance.

The values are drawn from ChEMBL document CHEMBL1127135, “Synthesis and biological properties of 3-[()-2-(1,2,3-Thiadiazolyl)ethenyl]-substituted cephalosporins and related compounds: new oral cephalosporins” (Bioorg Med Chem Lett, 1993).
